Results on 8 compounds are retold here after US8557804B2, “Nicotinic receptor agonists for the treatment of inflammatory diseases” (priority 2002, dated 2013).

Data set [1] has as its system SR-induced inflammation in mice. Briefly: Short term SR-induced acute lung inflammation in mice, BAL cells. The data set is classed as in vivo. The text has this: The Intranasal instillation of Saccharopolyspora rectivirgula (SR) antigens, the causative agent for farmer's lung, to mice, induces a prominent inflammatory response in the lung. Neutrophils are the first inflammatory cells recruited at the site of inflammation.

The conditions of data set [2]: reference (40); cited from earlier work.
A further data set has as its system blood eosinophils. The experiment in a line: Blood eosinophil transmigration through an artificial basement membrane (Matrigel coated chemotaxis chamber). Type of data set: cell-based. An excerpt: Infiltration of eosinophils and other inflammatory cells into lung tissues is an important feature of asthma and the cause of airway inflammation and hyper-responsiveness. The passage of inflammatory cells from the circulation to the lung involves migration through the vascular endothelium, the basement membrane, and extra-cellular matrix components. Inflammatory cells cross the basement membrane by producing proteinases. In these preliminary in vitro experiments, the effects of various nicotinic agonists on the migration of purified blood eosinophils through an artificial basement membrane (Matrigel® coated chemotaxis chamber) were investigated. […] Results are expressed as a percentage of inhibition (agonists-treated cells) compared to the control condition without the agonists.

Data set [3] concerns collagen 1A mRNA expression by normal human lung fibroblasts. The experiment in a line: Collagen A1 gene expression by RT-PCR in primary normal lung fibroblasts. The data set is classed as cell-based. How it is done:
Asthma is characterized by airway structural changes, including sub-epithelial collagen deposition, that may be a cause for the chronicity of the disease. An imbalance between collagen synthesis and its degradation by fibroblasts may be involved in this process (56). In preliminary experiments, we investigated the effects of nicotinic agonists on collagen A1 synthesis produced by primary normal fibroblasts. Collagen A1 gene expression was evaluated by RT-PCR.
The results are expressed percentage gene expression in agonists treated cells compared to non-treated cells.

For data set [4], the system named is lung resistance in hyperresponsive dogs. Briefly: Dog model of lung hyper-responsiveness to metacholine. Type of data set: in vivo. Particulars: 12 hyperresponsive dogs. How it is done:
In this model 12 dogs naturally sensitized to the roundworm Ascaris suum were used in a cross-over study design. Four groups of 3 dogs were randomly formed, exposed to the allergen, and each animal was left either untreated or received alternatively, ASM-002 (4 mg/kg 2× day in the food), or prednisone (1 mg/kg 1× day in the food), the most commonly used corticosteroid drug used to treat inflammation in asthma.
Hyper-responsiveness is described as the capacity of the lung to react (to increase lung resistance) to a non-specific external stimuli like metacholine or to allergens A hyper-responsive allergen-sensitized dog (asthmatic) will react to lower concentrations of metacholine compared to a non allergic dog. Similarly, improvement in lung hyper-responsiveness is shown by an increase in metacholine concentrations necessary to induce the same level of lung resistance.
Increasing concentrations of metacholine were administered with or without treatment with ASM-002 or Prednisone™ and lung resistance recorded.

Data set [5] deals with LTC4 release by blood eosinophils. Briefly: LTC4 production by PAF-stimulated blood eosinophils (enzyme immunoassay). Type of data set: cell-based, human. To be noted: eosinophils pre-incubated 18 hours with analog, PAF stimulated; untreated 1725.80. How it is done:
Blood eosinophils, the most increased inflammatory cells in asthma, were isolated by negative selection using bead-conjugated anti-CD16 monoclonal antibody and magnetic activating cell sorting. Cells were pre-Incubated for 18 hours with the various DMPP analogs and then stimulated with 1 µM platelet-activating factor (PAF) to produce LTC4 which was measured by enzyme immunoassay.
Human blood eosinophils were isolated from blood of asthmatic patients, stimulated in vitro with platelet activating factor (PAF) to produce large amounts of LTC4, and treated or not with 80 μM ASM-002.

The test system of data set [6] is CD86 expression on alveolar macrophages. Briefly: CD86 expression in SR-stimulated BAL cells of a normal patient. The data set is classed as cell-based, human. Particulars: SR-stimulated alveolar macrophages. How it is done: A broncho-alveolar lavage was performed on a normal patient, and alveolar macrophages were isolated.
The subject of data set [7] is IL-10 mRNA expression in AMJ2-C11 cells. Briefly: IL-10 mRNA expression by RT-PCR in AMJ2-C11 cells. Type of data set: cell-based, mouse. How it is done:
(§1) The effect of nicotine or DMPP treatment on AMJ2-C11 cells was tested on TNF-α, IL-10 mRNA expression by RT-PCR. These cytokines are involved in the development of pulmonary inflammatory diseases such as HP, asthma and sarcoidosis (52-55). […] Reference is made to FIG. 3 where results are expressed as a % of expression, 100% being attributed to the LPS alone group. The intensity of the band was obtained by dividing the intensity of the TNF-α band by that of β-actin. […] Reference is made to FIG. 4 where results are expressed as described in FIG. 5.

Another data set relates to IL-4 mRNA expression. The experiment in a line: IL-4 mRNA expression induced by a 24 h LPS stimulation. The data set is classed as cell-based. Particulars: LPS stimulation 24 h, 40 μM. How it is done: The effect of agonist treatment on mRNA expression of IL-4, a cytokine that is well known to be involved in the development of asthma, was also tested (53). […] Cells were treated with different doses (40 to 160 μM for both nicotine and DMPP).

Data set [8] has as its system CD80 expression on AMJ2-C11 cells. Briefly: B7 (CD80) molecule expression on AMJ2-C11 cells. Particulars: LPS (0.1 μg/ml) stimulated, 40 μM for 48 h; LPS alone 38%. Type of data set: cell-based, mouse. How it is done: The effects of nicotine and DMPP on B7 (CD80) molecule expression were tested in vitro. AMJ2-C11 cells (mouse alveolar macrophages, from the ATCC) were incubated with 40 μM nicotine or DMPP and stimulated with LPS (0.1 μg/ml) or SR antigen (50 μg/ml) for 48 hours.

The test system of another data set is IFN-γ mRNA. To be noted: pulmonary macrophages and lymphocytes from nicotine treated animals, anti-CD3 + IL-2.
Data set [9] relates to TNF-α mRNA expression in AMJ2-C11 cells. The experiment in a line: TNF-α mRNA expression by RT-PCR in AMJ2-C11 cells. The data set is classed as cell-based, mouse. How it is done: as §1
The test system of data set [10] is Saccharopolyspora rectivirgula (SR) antigen-induced HP in mice. Particulars: IP nicotine 0.5 to 2.0 mg/kg twice a day.
Data set [11] relates to TNF release by human blood monocytes. Briefly: cells. Type of data set: cell-based. Particulars: monocytes of asthmatic patients, LPS 100 ng/ml 18 h; n=8 to 10. How it is done: Human monocytes were isolated from the blood of asthmatic patients by Ficoll-paque density gradient, let to adhere to tissue culture plates and stimulated with LPS (100 ng/ml) for 18 hours at 37° C. with or without increasing concentrations of nicotine. The release of TNF, a potent pro-inflammatory mediator, was measured in the cell culture supernatant by the ELISA method. Results are expressed as a percentage release from LPS-stimulated untreated cells (FIG. 28).
Tumor necrosis factor (TNF) is a mediator released in inflammatory states.
Human blood monocytes were isolated by Ficoll-paque density gradient, let to adhere to tissue culture plates and stimulated with LPS (100 ng/ml) for 18 hours at 37° C. with or without increasing concentrations of nicotine analogues.

Setting [12] is: purified blood eosinophils, Matrigel.

Values joined by “and” are separate entries in the source; they are usually repeats but may differ in a detail not shown here. Equal values may be shown once. “Also recorded” adds a separate entry of the source. Where a name gives a salt, the structure may show the parent alone. Read-outs that look alike come from different tables or passages of the source.

With `Clc1ccc(C2CC3CCC2N3)cn1` (stereo not shown) [epibatidine, Epibatidine], in data set [1] (mouse, in vivo), the “effect on SR-induced inflammation (BAL cells)” value was “marked inhibitory effect; also recorded: significant inhibitory effect”. Further, in [2], the “analgesic potential, times that of morphine” value is given as “two hundred”. In the data set on blood eosinophils (setting [12]), the “inhibition of eosinophil transmigration” value is “reduce blood eosinophil transmigration”. Also, the “collagen A1 gene expression” value in data set [3] (primary normal fibroblasts, RT-PCR) is “inhibitory effect is also observed”.
As for `C[C@]12C=CC(=O)C=C1CC[C@@H]1[C@@H]2C(=O)C[C@@]2(C)[C@H]1CC[C@]2(O)C(=O)CO` [prednisone], the “dogs with decreased lung resistance / improved hyper-responsiveness” value in data set [4] is “None of the 12 dogs”.
Turning to `O=c1cccc2n1C[C@@H]1CNC[C@H]2C1` [cytisine], the “inhibition of eosinophil transmigration” value with blood eosinophils is recorded as “reduce blood eosinophil transmigration”.
In the case of `CC[N+]1(C)CCN(c2ccccc2)CC1` [ASM-003], the LTC4 in [5] was determined as 613.90 pg/mL.
For `CN1CCCC1c1cccnc1` (stereo not shown) [nicotine, Nicotine], the “effect on SR-induced inflammation (BAL cells)” value in data set [1] (intra-nasal every 6 h, 24 h after SR, DMPP 0.5 mg/kg, nicotine 0.5 mg/kg, epibatidine 2 μg/kg) is given as “marked inhibitory effect; also recorded: significant inhibitory effect”. The “expression of CD86 relative to non-treated cells” value in data set [6] was “about half of the expression”. Also, the “reduction of IL-10 mRNA expression” value in data set [7] (LPS stimulated 24 h, 40 μM) is 88% and 87%. In [7] (SR-stimulated 24 h, 160 μM), the “drop of IL-10 mRNA expression” value is 60%. The “reduction of IL-4 mRNA expression” value in the data set on IL-4 mRNA expression is listed as at most 90%; in the data set on IL-4 mRNA expression (listed as Nicotine) it was “up to 92%”. Also, the “percentage of expression of CD80” value in data set [8] worked out at 20%. Further, in the data set on IFN-γ mRNA, the “expression of IFN-γ mRNA vs cells from non-treated animals” value is listed as “significantly lower expression”. Moreover, the “inhibition of eosinophil transmigration” value with blood eosinophils (setting [12]) is recorded as “reduce blood eosinophil transmigration”. The “reduction of TNF-α mRNA expression” value in data set [9] (LPS stimulated 24 h, 40 μM) was found to be 98%. In addition, the “effect on TNF-α mRNA expression” value in data set [9] (SR-stimulated 24 h, only the 160 μM dose (80 and 160 μM tested)) is on record as “had an effect on mRNA expression”. The “lymphocyte population in BAL” value in [10] is “decrease in the lymphocyte population”. In addition, the “number of total cells in bronchoalveolar lavage (BAL)” value in data set [10] is on record as “significantly reduced”. Moreover, the “collagen A1 gene expression” value in data set [3] (1 and 10 μM) is given as “slight inhibitory effect”; in data set [3] (higher concentrations (above 10 μM)), “no effects”.
Regarding `CC[N+]1(CC)CCN(c2ccccc2)CC1` [ASM-005], the “effect on TNF release” value in data set [11] is listed as “Except for ASM-005, all analogs tested had an inhibitory effect”.
`C[N+]1(C)CCCN(c2ccccc2)CC1` (as salt: iodide) [ASM-002, 1,1-dimethyl-4-phenylhomopiperazinium iodide]: the melting point (as a rule, the temperature, or range, at which the solid turns liquid) was in the range of 158 to 160 °C.
Consider `CNC1(C)C2CCC(C2)C1(C)C` (stereo not shown) [mecamylamine], for which, in the data set with blood eosinophils (together with DMPP), the “effect of the antagonist on the DMPP inhibition of eosinophil transmigration” value is “reverses the effect of DMPP”.
